Source: PubChem BioAssay AID2060902 (Molecular Pharmacology Branch, DTP, NCI, 2025)
Where “and” joins values, the source holds several entries; their conditions need not be identical. Equal entries are not always repeated.

System: 485368-065-R3-J5-PDC spheroids with HUVEC/MSC, viability
Assay: Anticancer human tumor 485368-065-R3-J5-PDC patient-derived pancreatic carcinoma cell line growth inhibition [RAS]
Settings: for viability, T/C: stronger effect = lower value
From the text: RAS pathway inhibitors in Combinations in Complex Spheroids
A high-throughput screen of multi-cell type tumor spheroids was designed to identify active combinations of RAS pathway inhibitors and targeted small molecules. Complex spheroids include a stromal component modeled by human endothelial cells (HUVEC) and fibroblasts modeled by human mesenchymal stem cells (MSCs). The concentration ranges selected for each drug and investigational agent were based upon clinically achievable concentrations if the clinical Cmax of the agent was known.
Compounds. The drugs and investigational agents: abemaciclib (NSC768073), cobimetinib (NSC768068), divarasib (GDC6063, NSC841802), docetaxel (NSC628503), GDC-1971 (RLY-1971, NSC841576), gemcitabine (NSC613327), inavolisib (NSC800729), ipatasertib (NSC767898), KB-0742 (NSC834161), MRTX-1133 (NSC836407), osimertinib (NSC779217), RMC-4630 (NSC839698), RMC-6236 (NSC851965), RMC-6291 (NSC852671), Ro-3306 (NSC812927), sapanisertib (NSC764658), SN-38 (NSC673596), staurosporine (NSC755774), SY5609 (NSC837396), and tovorafenib (DAY101, NSC766906), were obtained from the National Cancer Institute (NCI) Developmental Therapeutics Program Chemical Repository. The FDA-approved anticancer drug set is available from the NCI Developmental Therapeutics Program. […] The stock solutions were prepared in dimethyl sulfoxide (DMSO, Sigma-Aldrich, St. Louis, MO, cat. D2650) at 800-fold the tested concentration and stored at -70 degrees C prior to their use. All drugs and investigational agents were tested over a range starting from a high concentration at or near the clinical Cmax and decreasing in half-log increments. If the clinical Cmax for an agent had not been determined, the highest concentration tested was 10 microM.
Cell Culture. All cells were maintained in an incubator at 37 degrees C and 5% CO2 with 95% humidity. The PDC lines were cultured according to standard operating procedures established by the NCI PDMR. All PDCs were thawed and cultured in Matrigel-coated flasks prepared with a working solution of 1X Ham's F-12 nutrient mix, without supplementation (Invitrogen, Waltham, MA, cat. 11765054), 100 U/mL penicillin-streptomycin (Invitrogen, cat. 15140122), and 2.5% Matrigel (Corning Inc., Corning, NY, cat. 354248) for the first three passages. The 362531-283-R-J2-PDC and 782815-120-R-J1-PDC lines were cultured in 6C/Colon 1B media, which includes advanced DMEM/F-12 (Thermo Fisher Scientific, cat. 12634028), 10 mM HEPES (Thermo Fisher Scientific, cat. 15630080), 1X GlutaMAX supplement (Thermo Fisher Scientific, cat. 35050061), 0.1 mg/mL primocin (InvivoGen, San Diego, CA, cat. ant-pm-2), 10% defined fetal bovine serum, heat inactivated (HyClone Laboratories Inc., Logan, UT, cat. SH30070.03HI), 50% L-WRN conditioned media (ATCC, cat. CRL-3276), 1.25 mM N-Acetyl-L-cysteine (Sigma-Aldrich, cat. A9165), 10 mM nicotinamide (Sigma-Aldrich, cat. N0636), 1X B-27 supplement (Thermo Fisher Scientific, cat. 17504044), 1X N-2 supplement (Thermo Fisher Scientific, cat. 17502048), 50 ng/mL human EGF (Thermo Fisher Scientific, cat. PHG0311), and 10 microM Y-27632 dihydrochloride (Tocris Bioscience, cat. 1254). The K12877-001-R-J1-PDC line was cultured in 6I media, which includes all 6C/Colon 1B media plus 10 ng/mL human FGF-10 (PeproTech, cat. 100-26), 1 ng/mL human FGF-2 (PeproTech, cat. 100-18B), 1 µM prostaglandin E2 (Tocris Bioscience, cat. 2296), […] hydrocortisone (Sigma-Aldrich, cat. H4001), and […] bovine insulin (Sigma-Aldrich, cat. I6634). The K86415-001-R-J1-PDC line was cultured in 6D media, which includes all 6C/Colon 1B media components minus the L-WRN conditioned media. The 485176-168-R4-J1-PDC was cultured in PANC media, which includes all 6C/Colon 1B media plus 100 ng/mL human FGF-10 (PeproTech, cat. 100-26), 500 nM SB-431542 (Selleckchem, cat. S1067), and 10 nM gastrin (Tocris Bioscience, cat. 3006). […]

[1] = curve of first compound, second compound 0.000949 µM
[2] = curve of first compound, second compound 0.003 µM
[3] = curve of first compound, second compound 0.00949 µM
[4] = curve of first compound, second compound 0.03 µM
[5] = curve of first compound, second compound 0.0949 µM
[6] = curve of first compound, second compound 0.3 µM
[7] = second compound 0.000949 µM, first compound 0.0316 µM
[8] = second compound 0.000949 µM, first compound 0.1 µM
[9] = second compound 0.000949 µM, first compound 0.316 µM
[10] = second compound 0.000949 µM, first compound 1 µM
[11] = second compound 0.000949 µM, first compound 3.16 µM
[12] = second compound 0.000949 µM, first compound 10 µM
[13] = second compound 0.003 µM, first compound 0.0316 µM
[14] = second compound 0.003 µM, first compound 0.1 µM
[15] = second compound 0.003 µM, first compound 0.316 µM
[16] = second compound 0.003 µM, first compound 1 µM
[17] = second compound 0.003 µM, first compound 3.16 µM
[18] = second compound 0.003 µM, first compound 10 µM
[19] = second compound 0.00949 µM, first compound 0.0316 µM
[20] = second compound 0.00949 µM, first compound 0.1 µM
[21] = second compound 0.00949 µM, first compound 0.316 µM
[22] = second compound 0.00949 µM, first compound 1 µM
[23] = second compound 0.00949 µM, first compound 3.16 µM
[24] = second compound 0.00949 µM, first compound 10 µM
[25] = second compound 0.03 µM, first compound 0.0316 µM
[26] = second compound 0.03 µM, first compound 0.1 µM
[27] = second compound 0.03 µM, first compound 0.316 µM
[28] = second compound 0.03 µM, first compound 1 µM
[29] = second compound 0.03 µM, first compound 3.16 µM
[30] = second compound 0.03 µM, first compound 10 µM
[31] = second compound 0.0949 µM, first compound 0.0316 µM
[32] = second compound 0.0949 µM, first compound 0.1 µM
[33] = second compound 0.0949 µM, first compound 0.316 µM
[34] = second compound 0.0949 µM, first compound 1 µM
[35] = second compound 0.0949 µM, first compound 3.16 µM
[36] = second compound 0.0949 µM, first compound 10 µM
[37] = second compound 0.3 µM, first compound 0.0316 µM
[38] = second compound 0.3 µM, first compound 0.1 µM
[39] = second compound 0.3 µM, first compound 0.316 µM
[40] = second compound 0.3 µM, first compound 1 µM
[41] = second compound 0.3 µM, first compound 3.16 µM
[42] = second compound 0.3 µM, first compound 10 µM
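Further: spheroids exposed to agents for seven days before readout.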

SMILES: CC(=O)OC12COC1CC(O)C1(C)C(=O)C(O)C3=C(C)C(OC(=O)C(O)C(NC(=O)OC(C)(C)C)c4ccccc4)CC(O)(C(OC(=O)c4ccccc4)C21)C3(C)C (stereo not given) + CCn1c(-c2cccnc2C(C)OC)c2c3cc(ccc31)N1CCOC(CC(NC(=O)C(C(C)C)N(C)C(=O)C3(F)CCN(C(=O)C#CC(C)(C)N(C)C)CC3)C(=O)N3CCCC(N3)C(=O)OCC(C)(C)C2)C1
- IC50 [1]: < 31.6 nM
- IC50 [2]: < 31.6 nM
- IC50 [3]: < 31.6 nM
- IC50 [4]: < 31.6 nM
- IC50 [5]: < 31.6 nM
- IC50 [6]: < 31.6 nM
- viability, T/C [7]: 12.6%
- viability, T/C [8]: 14.3%
- viability, T/C [9]: 13.1%
- viability, T/C [10]: 13.9%
- viability, T/C [11]: 21.4%
- viability, T/C [12]: 25.7%
- viability, T/C [13]: 15.6%
- viability, T/C [14]: 13.6%
- viability, T/C [15]: 14%
- viability, T/C [16]: 16.9%
- viability, T/C [17]: 18.9%
- viability, T/C [18]: 25.5%
- viability, T/C [19]: 13.2%
- viability, T/C [20]: 15.1%
- viability, T/C [21]: 14%
- viability, T/C [22]: 22.6%
- viability, T/C [23]: 21.1%
- viability, T/C [24]: 27.4%
- viability, T/C [25]: 12.2%
- viability, T/C [26]: 18.4%
- viability, T/C [27]: 19.4%
- viability, T/C [28]: 16.6%
- viability, T/C [29]: 21.1%
- viability, T/C [30]: 26%
- viability, T/C [31]: 10.7%
- viability, T/C [32]: 16.4%
- viability, T/C [33]: 14.5%
- viability, T/C [34]: 12.2%
- viability, T/C [35]: 21.3%
- viability, T/C [36]: 27.5%
- viability, T/C [37]: 13.1%
- viability, T/C [38]: 16.8%
- viability, T/C [39]: 15.9%
- viability, T/C [40]: 17.6%
- viability, T/C [41]: 27.7%
- viability, T/C [42]: 27.5%

SMILES: NC1c2ccccc2OC12CCN(c1cnc3c(N4CCCc5ncccc54)n[nH]c3n1)CC2 (stereo not given) + CCn1c(-c2cc(N3CCN(C)CC3)cnc2C(C)OC)c2c3cc(ccc31)-c1csc(n1)CC(NC(=O)C1CC1C)C(=O)N1CCCC(N1)C(=O)OCC(C)(C)C2
- IC50 [1]: < 31.6 nM
- IC50 [2]: < 31.6 nM
- IC50 [3]: < 31.6 nM
- IC50 [4]: < 31.6 nM
- IC50 [5]: < 31.6 nM
- IC50 [6]: < 31.6 nM
- viability, T/C [7]: 20.7%
- viability, T/C [8]: 16%
- viability, T/C [9]: 14.1%
- viability, T/C [10]: 10.6%
- viability, T/C [11]: 5.97%
- viability, T/C [12]: 4.14%
- viability, T/C [13]: 15.1%
- viability, T/C [14]: 12.5%
- viability, T/C [15]: 9.36%
- viability, T/C [16]: 4.72%
- viability, T/C [17]: 3.77%
- viability, T/C [18]: 1.44%
- viability, T/C [19]: 12.7%
- viability, T/C [20]: 8.1%
- viability, T/C [21]: 5.43%
- viability, T/C [22]: 2.3%
- viability, T/C [23]: 2.03%
- viability, T/C [24]: 0.85%
- viability, T/C [25]: 7.1%
- viability, T/C [26]: 6.69%
- viability, T/C [27]: 3.1%
- viability, T/C [28]: 1.62%
- viability, T/C [29]: 0.67%
- viability, T/C [30]: 0.58%
- viability, T/C [31]: 6.28%
- viability, T/C [32]: 4.31%
- viability, T/C [33]: 2.01%
- viability, T/C [34]: 0.85%
- viability, T/C [35]: 0.88%
- viability, T/C [36]: 0.54%
- viability, T/C [37]: 6.78%
- viability, T/C [38]: 3.56%
- viability, T/C [39]: 2.12%
- viability, T/C [40]: 1%
- viability, T/C [41]: 0.91%
- viability, T/C [42]: 0.53%

SMILES: CCC(CC)c1cc(NC2CCC(N)C2)n2nccc2n1 (stereo not given)
- viability, T/C (compound 0.0316 µM): 106% [middle of 4 runs]
- viability, T/C (compound 0.1 µM): 99.2% [middle of 4 runs]
- viability, T/C (compound 0.316 µM): 115% and 105% (2×) and 109%
- viability, T/C (compound 3.16 µM): 4.93% [middle of 4 runs]
- viability, T/C (compound 10 µM): 8.61% [middle of 4 runs]
- IC50 (curve of compound): 1.96 µM [middle of 4 runs]
